The subject of the experiment is CEM cells HIV-1 protection, formazan growth assay. In words: NCI AIDS Antiviral Assay. To be noted: for pIC50: measured here: growth of uninfected CEM cells. In a few lines:
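CEM (human) cells, HIV-1 infected vs uninfected, 5-point dosing, formazan growth read-out. Retest threshold 50% protection.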

pEC50, pIC50: −log10 of the molar value. Where “and” joins values, the source holds several entries; their conditions need not be identical. Equal entries are not always repeated. Calls of active or inactive are those of the source.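 Rule for the calls: active = compounds giving half or more protection of infected cells from virus-caused growth loss, again on retest; inactive = the rest.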 Where a SMILES comes first, the peptide text is derived from it.

In the case of `COP(=O)(OC)/C(=C/c1cn(C(c2ccccc2)(c2ccccc2)c2ccccc2)cn1)NC=O`, the pEC50 – broadly, the negative decadic logarithm of the EC50, by convention in mol/L – was less than 3.70 and the pIC50 (usually the IC50 on a negative log10 scale, so that one unit is a factor of ten) was less than 3.70.
In the case of `COc1cc(C2SCC(=O)N2c2ccc(Oc3ccc(Cl)cc3)c(Cl)c2)cc(OC)c1OC` (stereo unspecified), the pEC50 was less than 3.70 and the pIC50 is 4.70.
As for `O=S(=O)(O)CCN(CCO)CCO`, the pEC50 is less than 3.70 and the pIC50 is less than 3.70.
Consider `Cc1ccccc1Nc1cn(CCOc2ccccc2)c(=O)n(CCOc2ccccc2)c1=O`, for which the pEC50 is less than 3.70 and the pIC50 is less than 3.70.
As for `CC1C2CC(CC2N)C1(C)C` (stereo unspecified), the pEC50 was less than 3.79 and the pIC50 is less than 3.79.
Take `CCOc1cc2c[n+](C)c3c4cc(OC)c(OC)cc4ccc3c2cc1OC`: the pEC50 was less than 4.48 and the pIC50 was less than 4.48.
As for `CC(C)(C)c1cc(C(O)(C(F)(F)F)C(F)(F)F)c2c(c1)C(C(F)(F)F)(C(F)(F)F)OC(c1ccccc1)(C(C)(C)C)N2` (stereo unspecified), the outcome was inactive.
Regarding `C[C@]12CC[C@H](O)CC1=CCC1C2CC[C@@]2(C)C1CC[C@@H]2COS(=O)(=O)O` (stereo partly specified), the pEC50 was less than 4.21 and the pIC50 is less than 4.21.
As to `CC(CN(C)C)Nc1c2ccccc2nc2cccc([N+](=O)[O-])c12` (stereo unspecified), the pEC50 was less than 5.70 and the negative logarithm of the IC50 (pIC50) is 6.01.
The corresponding values for `CCCN(CCCC(NC(C)=O)C(=O)NCc1ccccc1)C(=O)NC` (stereo unspecified) are less than 3.16 and less than 3.16.
The corresponding values for `S=C(c1c[nH]c2ccccc12)N1CCN(c2ccccc2)CC1` are less than 3.70 and 3.80.
For `NC1=Nc2cc(Cl)ccc2Sc2nc3ccccc3n21` the same measures were less than 3.70 and 4.68.
Regarding `CC(=O)OCC1OC(n2c(C)cc(-c3ccco3)c(C#N)c2=S)C(OC(C)=O)C(OC(C)=O)C1OC(C)=O` (stereo unspecified), the pEC50 was 3.90 and the pIC50 was less than 3.70.
`NC(CCSSCCC(N)P(=O)(O)O)P(=O)(O)O` (stereo unspecified): the pEC50 was less than 3.70 and the pIC50 was less than 3.70.
Take `CC(OC(=O)NCn1cc(-c2ccccc2)nn1)c1ccccc1` (stereo unspecified): the pEC50 was 4.25 and the pIC50 is 4.12.
Turning to `COc1cccc(/C=N/N=C(/N)NO)c1`, the result was inactive.
`Nc1ccccc1SSc1ccccc1N`: the pEC50 was less than 3.70; the outcome was inactive; the pIC50 is 4.60 and 5.27.
In the case of `NC(CS/C=C\C(=O)O)C(=O)O` (stereo unspecified), the pEC50 was less than 4.56 and the pIC50 is less than 4.56.
Consider `On1c(-c2ccccc2)c(-c2c(-c3ccccc3)n(O)c3ccccc23)c2ccccc21`, for which the pEC50 is less than 3.50 and the pIC50 was 3.88.
On to `O=[N+]([O-])/C=C/c1cc2ccccc2[nH]1`, for which the pEC50 is less than 3.70 and the pIC50 was 5.20.
Consider `Cc1cc2ccccc2n1CC(=O)NCC(C)C`, for which the pEC50 was less than 3.70 and the pIC50 is less than 3.70.
With `CCc1ccc(/C(=N\NC(N)=S)C2CC2)cc1`, the pEC50 was less than 3.70 and the pIC50 was 3.96.
In the case of `S=C(N/N=C\C=N/NC(=S)N1CCCCC1)N1CCCCC1`, the pEC50 is less than 5.70 and the pIC50 was 6.44.
Consider `[N-]=[N+]=Nc1c([N+](=O)[O-])c(=O)n2c3c(cccc13)CCC2`, for which the outcome was inactive.
Turning to `CN1CCC2(CC1)OCCN2CCO`, the pEC50 was less than 2.90 and the pIC50 is less than 2.90.
For the molecule `CC(=O)Nc1cccc(S(=O)(=O)c2cccc(NC(=O)c3ccccc3SC(=O)CCCC[n+]3ccccc3)c2)c1`, the pEC50 was 4.75 and the pIC50 was less than 3.70.
For `CCN(CC)c1nc(=O)c(C(=O)C(C)(C)C)c(C(C)(C)C)o1`, the pEC50 was less than 3.70 and the pIC50 was less than 3.70.
`Cc1nc(-c2ccccc2)c(C)n2c1nc1ccccc12`: the pEC50 is less than 3.70 and the pIC50 was 4.54.
Regarding `O=Cc1cc(O)ccc1Br`, the pEC50 was less than 3.70 and the pIC50 was 5.53.
The corresponding values for `CCOC(=O)c1cc(-c2ccc(OC)cc2)c([N+](=O)[O-])n1C` are less than 3.70 and 4.49.
For `N#Cc1c(N2CCCC2)[nH]c(=O)n(-c2ccccc2)c1=S` the same measures were less than 3.70 and less than 3.70.
For `CCOC(=O)C(Cc1ccc2c(c1)CCC2)(Cc1ccc2c(c1)CCC2)C(=O)OCC` the same measures were less than 3.70 and 4.16.
Take `CC(/C=C/c1ccccc1)=N\N=C(C)\C=C\c1ccccc1`: the pEC50 is less than 4.88 and the pIC50 was less than 4.88.
Turning to `O=C(NNC1=NCCN1)c1ccco1`, the pEC50 is less than 3.70 and the pIC50 was less than 3.70.
`O=C(Nc1ccc(NC2=NCCN2)cc1)c1ccc(C(=O)Nc2ccc(NC3=NCCN3)cc2)c([N+](=O)[O-])c1`: the pEC50 was less than 3.70 and the pIC50 was 4.82.
For `CCOC(=O)Nc1cc2c(c(N)n1)N=C(c1ccccc1)CN2` the same measures were less than 6.77 and 7.50.
With `CC(C)C(NC(=O)C(N)CCCCN)C(=O)NC(CCCCN)C(=O)NCC(=O)NC(C(=O)O)C(C)O` (stereo unspecified) (H-KVKGT-OH; configuration not given here), the result was inactive.
On to `Cc1cc(Cl)ccc1NC(=O)/C(=N\NC(C)(C)C)C(C#N)c1nc(-c2ccc([N+](=O)[O-])cc2)cs1` (stereo unspecified), for which the pEC50 was 5.58 and the pIC50 was 4.99.
On to `Cc1cccc(/C=N\NC(=S)N2CCCCC2)n1`, for which the pEC50 is less than 3.70 and the pIC50 is 7.20.
Take `COc1ccc2c(c1)OC1c3ccccc3OCC21` (stereo unspecified): the outcome was inactive.
`O=c1nc2sc3ccc4ccccc4c3n2nc1-c1ccccc1`: the pEC50 is less than 4.31 and the pIC50 is less than 4.31.
As for `COc1ccc(CCCCl)c(C2=NCCc3cc(OC)c(OC)cc32)c1`, the pEC50 was less than 3.70 and the pIC50 was 4.44.
The corresponding values for `O=C(c1ccccc1)N1C(=S)N(c2ccccn2)C(=Nc2ccccc2)C1=Nc1ccccc1` are less than 3.70 and 5.06.
Turning to `CN(C)CCCNC(=O)c1nc(NC(=O)c2nc(NC(=O)c3nc(NC(=O)/C=C/C(=O)Nc4cn(C)c(C(=O)Nc5cn(C)c(C(=O)Nc6cn(C)c(C(=O)NCCCN(C)C)n6)n5)n4)cn3C)cn2C)cn1C`, the pEC50 is less than 4.30 and the pIC50 was less than 4.30.
On to `[N-]=[N+]=Nc1ccc(S(=O)(=O)Oc2cc(OS(=O)(=O)c3ccc(N=[N+]=[N-])cc3)cc(OS(=O)(=O)c3ccc(N=[N+]=[N-])cc3)c2)cc1`, for which the pEC50 is less than 5.39 and the pIC50 was less than 5.39.
Consider `NC(=O)N/N=C(/c1nc2ccc([N+](=O)[O-])cc2[nH]c1=O)C(O)c1ccco1` (stereo unspecified), for which the pEC50 is less than 3.74 and the pIC50 was less than 3.74.
Turning to `CCOc1ccc(N=O)c(O)c1`, the pEC50 was less than 3.70 and the pIC50 is 5.40.
The corresponding values for `CCc1cccc(C)c1NC(=O)CCc1nnc2s/c(=C\c3cccc4ccccc34)c(=O)n12` are less than 3.70 and 3.72.
The corresponding values for `CCN1CCCC(C#N)(c2ccccc2)CC1` (stereo unspecified) are less than 3.03 and 3.30.
Consider `COC(=O)c1c(-c2ccccc2)c(-c2ccccc2)[nH]c(=O)c1C#N`, for which the pEC50 is less than 3.70 and the pIC50 was less than 3.70.
Turning to `CC1=CCC2CC1NC(=O)CCOCCC(=O)NC2(C)C` (stereo unspecified), the pEC50 was less than 4.00 and the negative logarithm of the IC50 (pIC50) is less than 4.00.
Turning to `Cc1c(-c2ccccc2)cc(O)c2nc3ccccc3n12`, the pEC50 was less than 3.70 and the pIC50 is 4.71.
On to `C=CCC(C)C(=O)CP1(=O)OC(C)CCN1C(C)(C)C` (stereo unspecified), for which the outcome was inactive.
With `CC12CC(=O)C3C(C(=O)C1)C32C` (stereo unspecified), the pEC50 was less than 3.70 and the pIC50 was less than 3.70.
Turning to `C=C(CN(CC)CC)C1(c2ccccc2)CC2(CCCC2)C(=O)O1` (stereo unspecified), the pEC50 was less than 3.70 and the pIC50 was 3.93.
Regarding `O=C(CC1OC(O)C(Cl)=C1Cl)c1cccnc1` (stereo unspecified), the pEC50 was 4.61 and the pIC50 was 3.30.
For `CCOC(=O)Nc1[nH]c(C)c(Cc2ccccc2)c1C#N` the same measures were less than 3.70 and 4.91.
For `Cc1c(C)c2c(c(N)c1C#N)C(=O)N(Cc1ccc(S(N)(=O)=O)cc1)C2=O`, the negative-log EC50 (pEC50) is 4.16 and the pIC50 is less than 3.70.
Turning to `COC(=O)/C=C1\C(CO[Si](C)(C)C(C)(C)C)OC(n2ccc(=O)[nH]c2=O)C1O` (stereo unspecified), the pEC50 is less than 3.70 and the pIC50 was 5.21.
`COC(=O)C1(C(=O)OC)N=C(C)OC1c1ccccn1` (stereo unspecified): the pEC50 was less than 3.70 and the pIC50 is less than 3.70.
As to `CC(O)CN(CC(C)O)N(CC(C)O)CC(C)O` (stereo unspecified), the pEC50 is less than 3.02 and the pIC50 is 3.66.
`O=C1c2ccccc2C(=O)c2c1ccc1c3ccccc3n(-c3ccccc3)c21`: the pEC50 was less than 4.30 and the pIC50 is 6.06.
For `O=c1[nH]nc(Cl)c2c(O)c3ccccc3c(O)c12` the same measures were less than 4.17 and 4.49.
For `CC(O)C(=O)[O][Pb]([CH3])([CH3])[CH3]` (stereo unspecified) the same measures were less than 3.70 and less than 3.70.
For `CSSC(SC)SC` the same measures were less than 3.70 and 4.48.
Regarding `CC(=O)OC1C(O)COC(O[C@H]2CC[C@]34C[C@]35CC[C@]3(C)C([C@@]6(C)CC[C@@H](C(C)(C)O)O6)[C@@H](O)C[C@@]3(C)C5C[C@H](OC3OCC(O)C(O)C3O)[C@H]4C2(C)C)C1OC1OCC(O)C(O)C1O` (stereo partly specified), the pEC50 was less than 3.70 and the pIC50 is less than 3.70.
As to `COc1ccc(/C=C/c2cc(OC)c(OC)c(OC)c2)cc1O[Si](C)(C)C(C)(C)C`, the pEC50 was less than 5.06 and the pIC50 is 6.32.
For `c1ccc2c(c1)c1ccccc1c1nccnc21` the same measures were less than 3.70 and 4.16.
For `COC1CC2C=C(C)/C=C/C=C/C(=O)NC(c3ccccc3)C/C=C/CCC(O)CC(=O)C2=C1O` (stereo unspecified) the same measures were less than 4.68 and 6.25.
For `C/C(C=O)=C\c1ccc(F)cc1` the same measures were less than 3.66 and less than 3.66.
With `COC(=O)C(=O)OC1(C(C)=O)CC2(c3ccccc3)OC1(c1ccccc1)c1ccccc12` (stereo unspecified), the result was inactive.

Values taken from PubChem BioAssay AID179 (DTP/NCI, 2004).
